This is an account of results in ChEMBL document CHEMBL3217528, “Bicyclic imidazole-4-one derivatives: a new class of antagonists for the orphan G protein-coupled receptors GPR18 and GPR55” (Medchemcomm, 2014).

The Ki is the dissociation constant of the complex between target and ligand, obtained from inhibition or displacement. The term inhibition denotes the change of the read-out against control, counted positive when it falls. What is called IC50 is the concentration at which inhibition is half-maximal.

In assay [1] the target is T1, Cannabinoid receptor 1 (Homo sapiens, UniProt P21554). As to the kind of experiment: Displacement of [3H]CP55,940 from human recombinant CB1 receptor expressed in CHO-K1 cells. The format is cell-based.
T1 sequence (P21554 whole entry, the tested form may be a part): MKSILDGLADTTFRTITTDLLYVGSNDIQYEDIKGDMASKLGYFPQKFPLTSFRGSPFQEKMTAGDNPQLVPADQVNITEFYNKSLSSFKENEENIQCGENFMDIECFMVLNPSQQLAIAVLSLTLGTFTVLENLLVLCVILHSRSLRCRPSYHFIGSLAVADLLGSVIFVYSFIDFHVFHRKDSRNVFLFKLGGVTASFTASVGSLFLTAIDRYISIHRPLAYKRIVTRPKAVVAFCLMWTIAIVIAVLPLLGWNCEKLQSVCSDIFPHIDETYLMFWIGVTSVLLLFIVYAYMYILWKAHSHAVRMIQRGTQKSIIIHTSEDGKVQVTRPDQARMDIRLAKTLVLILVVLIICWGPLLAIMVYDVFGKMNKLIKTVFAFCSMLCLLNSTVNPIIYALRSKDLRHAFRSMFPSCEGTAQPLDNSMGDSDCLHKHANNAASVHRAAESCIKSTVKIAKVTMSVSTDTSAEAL
Assay [2] has as its target T2, G-protein coupled receptor 55 (Homo sapiens, UniProt Q9Y2T6). In words: Agonist activity at human GPR55 expressed in CHO cells assessed as induction of LPI-induced beta-arrestin recruitment by beta-galactosidase enzyme fragment complementation method relative to LPI. The format is cell-based. Also noted: concentration or dose not given beside the values. In general terms: Arrestin recruitment assays detect the binding of arrestin to an activated receptor.

In assay [3] the target is T3, N-arachidonyl glycine receptor (Homo sapiens) (UniProt Q14330).
T3 sequence (whole entry): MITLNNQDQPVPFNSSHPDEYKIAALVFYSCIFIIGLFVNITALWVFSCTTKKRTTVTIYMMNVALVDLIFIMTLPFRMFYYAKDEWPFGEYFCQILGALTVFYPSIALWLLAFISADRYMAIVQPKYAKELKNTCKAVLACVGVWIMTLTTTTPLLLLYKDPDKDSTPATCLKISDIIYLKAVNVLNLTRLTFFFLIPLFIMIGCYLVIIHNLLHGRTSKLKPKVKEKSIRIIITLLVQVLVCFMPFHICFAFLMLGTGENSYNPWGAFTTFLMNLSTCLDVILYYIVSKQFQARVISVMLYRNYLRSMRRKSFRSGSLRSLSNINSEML
As to the kind of experiment: Antagonist activity against human GPR18 expressed in CHO cells assessed as reduction in delta9-THC-induced beta-arrestin recruitment at 10 uM by beta-galactosidase enzyme fragment complementation method. The format is cell-based.

In assay [4] the target is T4, N-arachidonyl glycine receptor (Homo sapiens, UniProt Q14330).
T4 sequence (Q14330 whole entry): T3 sequence (whole entry)
As to the kind of experiment: Antagonist activity against human GPR18 expressed in CHO cells assessed as reduction in delta9-THC-induced beta-arrestin recruitment by beta-galactosidase enzyme fragment complementation method. The format is cell-based.

Assay [5] addresses Cannabinoid receptor 1 (Rattus norvegicus, UniProt P20272). In words: Displacement of [3H]CP55,940 from CB1 receptor in rat brain cortical membranes. The assay is classed as cell membranes. On the technique in general: Displacement assays read how much labelled ligand stays bound in the presence of the test substance.
Assay [6] has as its target T2, G-protein coupled receptor 55. As to the kind of experiment: Antagonist activity against human GPR55 expressed in CHO cells assessed as reduction in LPI-induced beta-arrestin recruitment by beta-galactosidase enzyme fragment complementation method. The assay is classed as cell-based.
Assay [7] addresses T5, Cannabinoid receptor 2 (Homo sapiens, UniProt P34972). As to the kind of experiment: Displacement of [3H]CP55,940 from human recombinant CB2 receptor expressed in HEK293 cells at 10 uM. The format is cell-based.
Assay [8] deals with T5, Cannabinoid receptor 2. As to the kind of experiment: Displacement of [3H]CP55,940 from human recombinant CB2 receptor expressed in HEK293 cells. The assay is classed as cell-based.
The target of assay [9] is Cannabinoid receptor 1 (Rattus norvegicus) (UniProt P20272). As to the kind of experiment: Displacement of [3H]CP55,940 from CB1 receptor in rat brain cortical membranes at 10 uM. The format is cell membranes.
Cannabinoid receptor 1 (Rattus norvegicus), sequence (P20272 whole entry, the tested form may be a part): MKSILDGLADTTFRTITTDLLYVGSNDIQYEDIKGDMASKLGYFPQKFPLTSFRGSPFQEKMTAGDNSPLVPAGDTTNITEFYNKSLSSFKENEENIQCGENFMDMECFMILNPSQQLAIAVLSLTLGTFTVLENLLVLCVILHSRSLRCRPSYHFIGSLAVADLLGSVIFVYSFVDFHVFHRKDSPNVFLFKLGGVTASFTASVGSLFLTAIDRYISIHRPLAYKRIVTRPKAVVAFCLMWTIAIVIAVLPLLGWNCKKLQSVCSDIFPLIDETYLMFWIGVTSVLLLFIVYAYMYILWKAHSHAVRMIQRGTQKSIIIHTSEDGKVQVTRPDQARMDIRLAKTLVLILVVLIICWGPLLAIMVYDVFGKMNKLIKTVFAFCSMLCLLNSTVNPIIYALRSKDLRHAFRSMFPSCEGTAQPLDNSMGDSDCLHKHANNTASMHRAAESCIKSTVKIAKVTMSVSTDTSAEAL
Assay [10] deals with T2, G-protein coupled receptor 55. As to the kind of experiment: Antagonist activity against human GPR55 expressed in CHO cells assessed as reduction in LPI-induced beta-arrestin recruitment at 10 uM by beta-galactosidase enzyme fragment complementation method. The assay is classed as cell-based.
Assay [11] has as its target T3, N-arachidonyl glycine receptor (Homo sapiens). In words: Agonist activity at human GPR18 expressed in CHO cells assessed as induction of beta-arrestin recruitment by beta-galactosidase enzyme fragment complementation method relative to delta9-THC. The format is cell-based. More on the design: concentration or dose not given beside the values.
For assay [12], the target named is T1, Cannabinoid receptor 1. In words: Displacement of [3H]CP55,940 from human recombinant CB1 receptor expressed in CHO-K1 cells at 10 uM. The format is cell-based.

T5 sequence (P34972 whole entry): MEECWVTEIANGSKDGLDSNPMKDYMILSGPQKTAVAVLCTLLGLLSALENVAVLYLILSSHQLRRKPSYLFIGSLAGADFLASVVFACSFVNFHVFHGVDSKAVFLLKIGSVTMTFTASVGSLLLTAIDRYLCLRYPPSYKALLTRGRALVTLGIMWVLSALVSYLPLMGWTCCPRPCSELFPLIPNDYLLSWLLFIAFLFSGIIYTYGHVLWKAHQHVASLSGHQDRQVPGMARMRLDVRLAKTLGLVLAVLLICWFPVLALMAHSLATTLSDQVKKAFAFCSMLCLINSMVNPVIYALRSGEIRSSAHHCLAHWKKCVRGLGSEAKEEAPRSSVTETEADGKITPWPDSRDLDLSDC
T2 sequence (Q9Y2T6 whole entry, the tested form may be a part): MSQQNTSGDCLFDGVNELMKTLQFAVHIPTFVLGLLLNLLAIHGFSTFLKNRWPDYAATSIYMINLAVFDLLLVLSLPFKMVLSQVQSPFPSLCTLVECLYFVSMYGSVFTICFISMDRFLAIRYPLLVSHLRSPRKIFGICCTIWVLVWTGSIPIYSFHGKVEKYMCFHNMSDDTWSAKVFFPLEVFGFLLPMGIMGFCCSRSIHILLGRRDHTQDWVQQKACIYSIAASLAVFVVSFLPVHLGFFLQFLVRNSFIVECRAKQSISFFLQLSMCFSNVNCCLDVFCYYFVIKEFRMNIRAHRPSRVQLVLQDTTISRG
Cannabinoid receptor 1 (Rattus norvegicus, UniProt P20272), sequence (P20272 whole entry, the tested form may be a part): as the sequence (P20272 whole entry, the tested form may be a part) above

On to `O=C1/C(=C/c2cccc([N+](=O)[O-])c2)N=C2SCCCN12`, for which the Ki on Cannabinoid receptor 1 [1], on Cannabinoid receptor 1 [5] and at Cannabinoid receptor 2 [8] was above 10 µM each time. The Activity came out at 21% in [2] and 2% in [11]. Further, the inhibition in [3] is 6%; on Cannabinoid receptor 2 [7] it was 10%; in assay [9], 8%; in assay [10], 20%; at Cannabinoid receptor 1 [12] it was 19%. The IC50 in assay [4] and in assay [6] was above 10 µM throughout.

For `O=C1N=C2SCCN2C1(c1ccccc1)c1ccccc1`, the Ki on Cannabinoid receptor 1 [1], on Cannabinoid receptor 1 [5] and at Cannabinoid receptor 2 [8] was above 10 µM throughout. Also, the Activity was 50% in [2] and 21% in assay [11]. Further, the inhibition in assay [3] came out at 0%; at Cannabinoid receptor 2 [7], 6%; in [9], 13%; in assay [10] it was 31%; on Cannabinoid receptor 1 [12], 30%. Further, the IC50 in [4] and in [6] was above 10 µM throughout.

On to `COc1ccc(/C=C2\N=C3SCCCN3C2=O)cc1OC`, for which the Ki at Cannabinoid receptor 1 [1], on Cannabinoid receptor 1 [5] and on Cannabinoid receptor 2 [8] was above 10 µM in each case. Moreover, the Activity in assay [2] worked out at 6%; in assay [11], 0%. Further, the inhibition in [3] came out at 2%; on Cannabinoid receptor 2 [7], 18%; in assay [9] it was 3%; in assay [10], 12%; at Cannabinoid receptor 1 [12], 7%. In addition, the IC50 in assay [4] and in assay [6] was above 10 µM in each case.

Take `O=C1/C(=C/c2ccc(Br)cc2)N=C2SCCCN12`: the Ki on Cannabinoid receptor 1 [1], at Cannabinoid receptor 1 [5] and at Cannabinoid receptor 2 [8] was above 10 µM in each case. For the same compound, the Activity in [2] came out at 26%; in assay [11], 0%. The inhibition in assay [3] worked out at 13%; on Cannabinoid receptor 2 [7], 8%; in assay [9], 21%; in [10], 16%; on Cannabinoid receptor 1 [12] it was 29%. The IC50 in assay [4] and in assay [6] was above 10 µM throughout.

Take `O=C1/C(=C/c2cccc(OCc3ccc(Cl)c(Cl)c3)c2)N=C2SCCCN12`: the Ki at Cannabinoid receptor 1 [1], on Cannabinoid receptor 1 [5] and on Cannabinoid receptor 2 [8] was above 10 µM in each case. In addition, the Activity in [2] amounted to 4%; in [11] it was 0%. Further, the IC50 in assay [4] turned out to be 6.16 µM; in [6] it was 11.8 µM. Further, the inhibition was determined as 0% at Cannabinoid receptor 2 [7] and 15% on Cannabinoid receptor 1 [12].

For `O=C1/C(=C/c2c(Cl)cccc2Cl)N=C2SCCCN12`, the Ki on Cannabinoid receptor 1 [1] and on Cannabinoid receptor 2 [8] was above 10 µM throughout. Further, the Activity turned out to be 15% in [2] and 12% in [11]. The inhibition stood at 0% in assay [3], 4% on Cannabinoid receptor 2 [7], 0% in assay [10] and 14% at Cannabinoid receptor 1 [12]. The IC50 in assay [4] and in [6] was above 10 µM in each case.

`O=C1N2CCSC2=NC1(c1ccccc1)c1ccccc1`: the Ki on Cannabinoid receptor 1 [1] was 21.1 µM; on Cannabinoid receptor 1 [5], above 10 µM; on Cannabinoid receptor 2 [8], above 10 µM. Besides, the Activity stood at 50% in assay [2] and 12% in assay [11]. In addition, the inhibition in [3] is 12%; on Cannabinoid receptor 2 [7], 3%; in [9] it was 15%; in assay [10], 39%. In addition, the IC50 in assay [4] and in assay [6] was above 10 µM throughout.

As to `O=C1/C(=C/c2ccc(Cl)cc2Cl)N=C2SCCCN12`, the Ki on Cannabinoid receptor 1 [1] and on Cannabinoid receptor 2 [8] was above 10 µM each time. For the same compound, the Activity in [2] and in assay [11] was 0% throughout. Moreover, the inhibition is 14% in assay [3], 24% at Cannabinoid receptor 2 [7] and 8% on Cannabinoid receptor 1 [12]. Besides, the IC50 in assay [4] was above 10 µM; in assay [6], 6.76 µM.

For the compound `O=C(Oc1cccc(/C=C2\N=C3SCCCN3C2=O)c1)c1ccc(Cl)cc1`, the Ki at Cannabinoid receptor 1 [1], at Cannabinoid receptor 1 [5] and at Cannabinoid receptor 2 [8] was above 10 µM in each case. For the same compound, the Activity in assay [2] was found to be 31%; in [11] it was 0%. Also, the concentration for half-maximal inhibition (IC50) in assay [4] is 14.3 µM; in assay [6], above 10 µM. Moreover, the inhibition on Cannabinoid receptor 2 [7] came to 0%; in assay [9], 24%; in assay [10] it was 16%; at Cannabinoid receptor 1 [12], 12%.

For `CN(C)c1ccc(/C=C2\N=C3SCCCN3C2=O)cc1`, the Ki on Cannabinoid receptor 1 [1] is above 10 µM; at Cannabinoid receptor 1 [5], above 10 µM; on Cannabinoid receptor 2 [8], 16.6 µM. The Activity in [2] was found to be 20%; in assay [11] it was 17%. Further, the inhibition in [3] amounted to 13%; in [9], 6%; in assay [10], 13%; at Cannabinoid receptor 1 [12], 29%. Moreover, the IC50 in assay [4] and in [6] was above 10 µM throughout.

`COc1cccc(/C=C2\N=C3SCCCN3C2=O)c1OC`: the Ki on Cannabinoid receptor 1 [1] and at Cannabinoid receptor 2 [8] was above 10 µM each time. The Activity in assay [2] was 0%; in [11] it was 10%. The inhibition in assay [3] was determined as 10%; at Cannabinoid receptor 2 [7], 15%; on Cannabinoid receptor 1 [12], 18%. The figures for the IC50 in assay [4] and in assay [6] were above 10 µM and 16.4 µM, respectively.

Regarding `CCOC(=O)COc1cccc(/C=C2\N=C3SCCCCN3C2=O)c1`, the Ki is 4.78 µM at Cannabinoid receptor 1 [1], above 10 µM on Cannabinoid receptor 1 [5] and above 10 µM on Cannabinoid receptor 2 [8]. Besides, the Activity worked out at 0% in assay [2] and 19% in assay [11]. The inhibition in assay [3] amounted to 22%; at Cannabinoid receptor 2 [7], 39%; in assay [9], 27%; in [10], 4%. The IC50 in assay [4] and in [6] was above 10 µM throughout.

With `Cc1ccc(C(=O)Oc2cccc(/C=C3\N=C4SCCCCN4C3=O)c2)cc1`, the values for the Ki on Cannabinoid receptor 1 [1], on Cannabinoid receptor 1 [5] and at Cannabinoid receptor 2 [8] were above 10 µM, above 10 µM and 2.58 µM, respectively. For the same compound, the Activity in [2] was 25%; in [11], 0%. For the same compound, the IC50 in assay [4] is 6.45 µM; in assay [6], above 10 µM. Besides, the inhibition in assay [9] was found to be 4%; in [10] it was 32%; at Cannabinoid receptor 1 [12] it was 35%.

With `CCCCC/C=C\C/C=C\C/C=C\C/C=C\CCCC(=O)NCC(=O)O` [ARACHIDONOYL GLYCINE], the Ki on Cannabinoid receptor 1 [1] and on Cannabinoid receptor 2 [8] was above 10 µM each time. The inhibition in [3] was found to be 0%; on Cannabinoid receptor 2 [7] it was 36%; in assay [10], 6%; at Cannabinoid receptor 1 [12], 43%. The IC50 in assay [4] and in assay [6] was above 10 µM in each case.

Turning to `O=C1/C(=C/c2cccc(OCc3ccccc3Cl)c2)N=C2SCCCN12`, the Ki on Cannabinoid receptor 1 [1] and at Cannabinoid receptor 2 [8] was above 10 µM each time. For the same compound, the Activity in assay [2] turned out to be 10%; in [11], 8%. In addition, the figures for the IC50 in assay [4] and in assay [6] were 1.65 µM and at least 10 µM, respectively. In addition, the values for the inhibition (at Cannabinoid receptor 2 [7]; in [10]; on Cannabinoid receptor 1 [12]) were 9%, 45% and 0%, respectively.

Take `O=C1/C(=C/c2ccccc2F)N=C2SCCCN12`: the Ki on Cannabinoid receptor 1 [1] and at Cannabinoid receptor 2 [8] was above 10 µM each time. The Activity in assay [2] amounted to 0%; in [11], 6%. Further, the inhibition in assay [3] was found to be 17%; at Cannabinoid receptor 2 [7], 0%; at Cannabinoid receptor 1 [12], 13%. Also, the IC50 was above 10 µM in assay [4] and 5.56 µM in assay [6].

For `O=C1N=C2SCCCN2/C1=C\C=C\c1ccccc1`, the Ki at Cannabinoid receptor 1 [1], on Cannabinoid receptor 1 [5] and at Cannabinoid receptor 2 [8] was above 10 µM each time. For the same compound, the Activity in assay [2] was 59%; in assay [11] it was 9%. Moreover, the inhibition in [3] stood at 2%; at Cannabinoid receptor 2 [7] it was 19%; in [10] it was 0%; on Cannabinoid receptor 1 [12], 26%. In addition, the IC50 in [4] and in [6] was above 10 µM throughout.

With `O=C1/C(=C/c2ccc(-c3ccccc3)cc2)N=C2SCCCCN12`, the Ki is above 10 µM at Cannabinoid receptor 1 [1], above 10 µM at Cannabinoid receptor 1 [5] and 5.43 µM at Cannabinoid receptor 2 [8]. Also, the results for the Activity in assay [2] and in assay [11] were 30% and 6%, respectively. In addition, the inhibition in assay [3] was 37%; in assay [9], 0%; in assay [10] it was 0%; at Cannabinoid receptor 1 [12] it was -5%. Besides, the IC50 in assay [4] and in assay [6] was above 10 µM in each case.
